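1) Cells in 96-well plates. 2) Compound, 48 h, 5 concentrations. 3) Linear interpolation between surrounding doses. 4) Unreached endpoint = highest concentration. GI50: concentration for 50% inhibition of growth. TGI is the concentration that stops growth completely.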 A value given as a limit tells only on which side of the number the result lay.

Test systems include NCI-H226 lung; RPMI-8226 leukemia; 786-0 renal; SF-268 CNS; NCI/ADR-RES ovarian; NCI-H23 lung; HT29 colon; MDA-MB-231 breast; SF-539 CNS; CAKI-1 renal; IGROV1 ovarian.
What all share (test): NCI tumour cell line growth inhibition, 48 h

For the molecule `Cc1noc(NC2=CC(=O)C(=O)c3ccccc32)c1C`, the TGI is more than 100 µM in the assay on NCI-H226 lung; 36 µM with RPMI-8226 leukemia; more than 100 µM with 786-0 renal; more than 100 µM in the assay with SF-268 CNS; 21.4 µM with NCI/ADR-RES ovarian; 35.5 µM with NCI-H23 lung. The TGI with HT29 colon is 88 µM; in the assay with MDA-MB-231 breast, more than 100 µM; with SF-539 CNS, 14.1 µM; with CAKI-1 renal, more than 100 µM.
In the case of `CCOC(=O)C(NC(=O)c1ccccc1)(N1CCOCC1)C(F)(F)F` (configuration not stated), the TGI in the assay with NCI-H226 lung, with RPMI-8226 leukemia, in the assay on 786-0 renal, in the assay with SF-268 CNS, in the assay with NCI/ADR-RES ovarian and with NCI-H23 lung was more than 100 µM in each case. Besides, the TGI in the assay with HT29 colon, with MDA-MB-231 breast, in the assay on SF-539 CNS, in the assay on CAKI-1 renal and in the assay on IGROV1 ovarian was more than 100 µM in each case.
On to `COc1ccc(C2C3COc4ccccc4C3=NN2c2ccccc2)cc1` (configuration not stated), for which the TGI in the assay on NCI-H226 lung, in the assay on RPMI-8226 leukemia, in the assay with 786-0 renal, in the assay with SF-268 CNS, with NCI/ADR-RES ovarian and in the assay on NCI-H23 lung was more than 100 µM throughout. In addition, the TGI in the assay with HT29 colon, with MDA-MB-231 breast, in the assay on SF-539 CNS, in the assay with CAKI-1 renal and in the assay with IGROV1 ovarian was more than 100 µM in each case.
For the molecule `O=[N+]([O-])c1cc2c(cc1/C=N/n1c(CO)nc3ccccc31)OCO2`, the TGI with NCI-H226 lung, in the assay with RPMI-8226 leukemia, in the assay with 786-0 renal, in the assay on SF-268 CNS, in the assay on NCI/ADR-RES ovarian and in the assay with NCI-H23 lung was more than 100 µM throughout. In addition, the TGI in the assay with HT29 colon, in the assay with MDA-MB-231 breast, in the assay on SF-539 CNS and with CAKI-1 renal was more than 100 µM each time.
As to `N#Cc1c(-c2ccccc2)c(N=Nc2ccc(Cl)cc2)c(=O)n2c1[nH]c1ccccc12`, the TGI is more than 100 µM in the assay with NCI-H226 lung; more than 100 µM in the assay with RPMI-8226 leukemia; 73.2 µM with 786-0 renal; more than 100 µM in the assay with SF-268 CNS; more than 100 µM in the assay with NCI/ADR-RES ovarian; more than 100 µM in the assay with NCI-H23 lung. Besides, the TGI in the assay on MDA-MB-231 breast, with SF-539 CNS, in the assay with CAKI-1 renal and in the assay on IGROV1 ovarian was more than 100 µM in each case.
Take `Cc1ccc2nc(-c3ccc(N4C(=O)C(Cl)C4c4ccc(Cl)cc4)cc3)sc2c1` (configuration not stated): the TGI in the assay on NCI-H226 lung was found to be 36 µM; in the assay with RPMI-8226 leukemia, 38.6 µM; in the assay on 786-0 renal, 56.9 µM; in the assay with SF-268 CNS it was 68 µM; with NCI/ADR-RES ovarian, 39.3 µM; in the assay on NCI-H23 lung, 53.7 µM. Besides, the TGI in the assay with HT29 colon turned out to be 4.02 µM; with MDA-MB-231 breast, 33 µM; with SF-539 CNS, 35.3 µM; with CAKI-1 renal it was 35.6 µM.
Consider `CCCCCCCCCCC1OC([C@@H](O)CC[C@H](O)C2CC[C@@H](CCCCCCCC(O)CC3=CC(C)OC3=O)O2)CCC1O` (some centres not stated), for which the TGI with NCI-H226 lung was more than 25 µM; with RPMI-8226 leukemia it was 15.4 µM; with 786-0 renal it was more than 25 µM; in the assay with SF-268 CNS, more than 25 µM; in the assay with NCI/ADR-RES ovarian it was more than 25 µM; in the assay with NCI-H23 lung, more than 25 µM. Further, the TGI with MDA-MB-231 breast, in the assay on SF-539 CNS, in the assay on CAKI-1 renal and in the assay with IGROV1 ovarian was more than 25 µM each time. Besides, the GI50 with SF-268 CNS was 23.6 µM; in the assay with NCI/ADR-RES ovarian it was 6.4 µM; in the assay on NCI-H23 lung it was 1.35 µM; with MDA-MB-231 breast it was 5.88 µM; in the assay with IGROV1 ovarian, 10.6 µM.
Turning to `COc1c(O)cc2c(c1O)C(=O)/C(=C/c1ccc(O)cc1)CO2`, the TGI is 37.2 µM in the assay with RPMI-8226 leukemia; 75.5 µM in the assay on 786-0 renal; more than 100 µM with SF-268 CNS; 57 µM with NCI/ADR-RES ovarian; more than 100 µM with NCI-H23 lung; 41.1 µM in the assay on HT29 colon. The TGI in the assay with MDA-MB-231 breast is more than 100 µM; with SF-539 CNS, 48.9 µM; in the assay with CAKI-1 renal it was 53.9 µM; in the assay on IGROV1 ovarian, 80.8 µM.
As to `Cc1ccc(/C(O)=C/c2nc3ccccc3s/c2=N/CS(=O)(=O)c2ccc(C)cc2)cc1`, the TGI in the assay on RPMI-8226 leukemia, with 786-0 renal, in the assay on SF-268 CNS, in the assay with NCI/ADR-RES ovarian, in the assay with NCI-H23 lung and with HT29 colon was more than 10 µM throughout. Further, the TGI in the assay on MDA-MB-231 breast, in the assay on SF-539 CNS, in the assay on CAKI-1 renal and in the assay on IGROV1 ovarian was more than 10 µM throughout.
`CCOC(=O)c1sc2[n+](c1C)C(=O)/C(=C/c1ccc([N+](=O)[O-])cc1)S2`: the TGI was determined as 58.4 µM in the assay with NCI-H226 lung; 67.3 µM in the assay with RPMI-8226 leukemia; 56.8 µM in the assay with 786-0 renal; 47.3 µM in the assay with SF-268 CNS; 42.5 µM with NCI/ADR-RES ovarian; 48.4 µM in the assay on NCI-H23 lung. Also, the TGI in the assay with HT29 colon was 41.9 µM; in the assay with MDA-MB-231 breast, more than 100 µM; in the assay with SF-539 CNS, 54.7 µM; in the assay on CAKI-1 renal, 37.7 µM.
`COc1ccc(N2C(=O)C3c4[nH]c5ccc(F)cc5c4C4CCC(c5ccccc5)CC4C3C2=O)cc1` (configuration not stated): the TGI in the assay with NCI-H226 lung was more than 100 µM; in the assay with RPMI-8226 leukemia it was more than 100 µM; in the assay with 786-0 renal, 12.1 µM; in the assay with SF-268 CNS, 20.3 µM; in the assay on NCI/ADR-RES ovarian, more than 100 µM; in the assay with NCI-H23 lung, 44.5 µM. In addition, the TGI in the assay on HT29 colon is more than 100 µM; with MDA-MB-231 breast, 44 µM; in the assay on CAKI-1 renal, 48.1 µM; in the assay with IGROV1 ovarian it was 56.2 µM.
For `C=C1C(=O)O[C@@H]2C=C(C)C3=CC(=O)[C@](C)(C[C@H](OC(=O)/C(C)=C\C)[C@@H]12)O3`, the TGI was determined as 4.99 µM with NCI-H226 lung; 0.938 µM with RPMI-8226 leukemia; 1.54 µM with 786-0 renal; 3.64 µM with NCI/ADR-RES ovarian; 3.43 µM with NCI-H23 lung; 2.73 µM with HT29 colon. Further, the TGI with MDA-MB-231 breast was found to be 2.24 µM; with SF-539 CNS, 6.09 µM; in the assay on CAKI-1 renal, 1.38 µM; in the assay on IGROV1 ovarian it was 3.04 µM.
